Molecules are shown by their SMILES. “And” between values parts separate entries of the source, which are not always exact repeats. Equal values may be shown once.

For this experiment, the target named is T1, GCase (GBA) in human fibroblast cell line GM10915 harboring the L444P GBA mutation (Homo sapiens, UniProt P04062, L483P).
T1 construct: Human fibroblast cell line GM10915 harboring the L444P GBA mutation; host or cells: GM10915 human fibroblasts
T1 sequence (P04062 40-536 L483P): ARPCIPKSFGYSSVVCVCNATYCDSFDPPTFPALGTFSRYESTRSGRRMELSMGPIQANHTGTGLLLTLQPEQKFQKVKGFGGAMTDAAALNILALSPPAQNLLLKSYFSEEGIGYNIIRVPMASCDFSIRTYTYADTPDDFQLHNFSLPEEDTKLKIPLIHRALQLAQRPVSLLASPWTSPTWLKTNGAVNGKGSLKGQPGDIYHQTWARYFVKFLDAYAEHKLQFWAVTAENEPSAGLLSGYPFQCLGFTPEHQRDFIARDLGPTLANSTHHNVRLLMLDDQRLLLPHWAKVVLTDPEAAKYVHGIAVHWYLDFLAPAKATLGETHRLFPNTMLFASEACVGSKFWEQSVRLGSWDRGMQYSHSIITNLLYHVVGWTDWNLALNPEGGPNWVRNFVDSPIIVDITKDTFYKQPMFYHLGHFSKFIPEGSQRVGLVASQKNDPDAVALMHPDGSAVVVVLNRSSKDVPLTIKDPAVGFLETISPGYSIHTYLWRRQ
Put plainly: GCase activity assay (4-MUG substrate, normalised to crystal violet staining) in L444P GBA fibroblasts. The format is cell-based. The following applies: 5 days exposure; for GBA EC1.5: concentration giving 150% GCase activity (1.5-fold induction), 8-point dose range; for Emax / GBA Emax: maximum percent GCase activity relative to untreated cells in the dose range tested. In short, it runs like this: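 Patient fibroblasts GM10915 (L444P GBA) exposed to compounds for five days over an 8-point range, with fresh dosing every 2–3 days. Intact-cell GCase measured with 2.5 mM 4-MUG at pH 4.0 for 23 h at 37 °C (ex/em 365/445 nm), normalised to crystal violet, as % of PBS basal; Emax is the maximum reached.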

As to `CN(C)CCCC1=NOCC(CN2CCCCC2)O1` (racemic) [compound 768, rac-N,N-dimethyl-3-(5-(piperidin-1-ylmethyl)-5,6-dihydro-1,4,2-dioxazin-3-yl)propan-1-amine], the “GBA EC1.5” value is 6 µM and the Emax was 238%.
Turning to `CN1CCC(C2=NOCC(CN3CCCCC3)O2)CC1` (racemic) [compound 770, rac-3-(1-methylpiperidin-4-yl)-5-(piperidin-1-ylmethyl)-5,6-dihydro-1,4,2-dioxazine], the “GBA EC1.5” value worked out at 9 µM and the Emax was found to be 265%.
The like results for `CN(C)CCC1=NOCC(CN2CCCCC2)O1` (racemic) [compound 779, rac-N,N-dimethyl-2-(5-(piperidin-1-ylmethyl)-5,6-dihydro-1,4,2-dioxazin-3-yl)ethan-1-amine] were, in that order, 11 µM and 259%.
The like results for `NCC(=O)N1CCC(C2=NOCC(CN3CCCCC3)O2)CC1` (racemic) [compound 787, rac-2-amino-1-(4-(5-(piperidin-1-ylmethyl)-5,6-dihydro-1,4,2-dioxazin-3-yl)piperidin-1-yl)ethan-1-one] were, in that order, 42 µM and 193%.
On to `c1cncc(CNCCC2=NOCC(CN3CCCCC3)O2)c1` (racemic) [compound 797, rac-2-(5-(piperidin-1-ylmethyl)-5,6-dihydro-1,4,2-dioxazin-3-yl)-N-(pyridin-3-ylmethyl)ethan-1-amine], for which the “GBA EC1.5” value came to 46 µM and the Emax is 149%.
With `COc1cncc(CNCCC2=NOCC(CN3CCCCC3)O2)c1` (racemic) [compound 806, rac-N-((5-methoxypyridin-3-yl)methyl)-2-(5-(piperidin-1-ylmethyl)-5,6-dihydro-1,4,2-dioxazin-3-yl)ethan-1-amine], the “GBA EC1.5” value worked out at 40 µM and the Emax turned out to be 183%.
In the case of `C1CCN(CCC2=NOCC(CN3CCCCC3)O2)CC1` (racemic) [compound 816, rac-3-(2-(piperidin-1-yl)ethyl)-5-(piperidin-1-ylmethyl)-5,6-dihydro-1,4,2-dioxazine], the “GBA EC1.5” value came out at 4 µM and the Emax was found to be 181%.
The like results for `COC1CN(C)CC1C1=NOCC(CN2CCCCC2)O1` (racemic) [compound 821, rac-3-(4-methoxy-1-methylpyrrolidin-3-yl)-5-(piperidin-1-ylmethyl)-5,6-dihydro-1,4,2-dioxazine] were, in that order, 29 µM and 213%.
The like results for `CN1CCN(CCC2=NOCC(CN3CCCCC3)O2)CC1` (racemic) [compound 823, rac-3-(2-(4-methylpiperazin-1-yl)ethyl)-5-(piperidin-1-ylmethyl)-5,6-dihydro-1,4,2-dioxazine] were, in that order, 18 µM and 312%.
The like results for `CN(C)CC1(C2=NOCC(CN3CCCCC3)O2)CCN(C)C1` (racemic) [compound 826, rac-N,N-dimethyl-1-(1-methyl-3-(5-(piperidin-1-ylmethyl)-5,6-dihydro-1,4,2-dioxazin-3-yl)pyrrolidin-3-yl)methanamine] were, in that order, 7 µM and 190%.
`C1CCN(CC2CON=C([C@]34CNC[C@H]3CCOC4)O2)CC1` (relative stereo) [compound 461, rac-rel-trans-(3aR,7aR)-3a-(5-(piperidin-1-ylmethyl)-5,6-dihydro-1,4,2-dioxazin-3-yl)octahydropyrano[3,4-c]pyrrole]: the “GBA EC1.5” value was determined as 19 µM and the Emax was 203%.
The like results for `C1CCN(CC2CON=C([C@]34CCN[C@H]3CCOC4)O2)CC1` (relative stereo) [compound 462, rac-rel-trans(3aR,7aS)-3a-(5-(piperidin-1-ylmethyl)-5,6-dihydro-1,4,2-dioxazin-3-yl)octahydropyrano[4,3-b]pyrrole di-2,2,2-trifluoroacetate] were, in that order, 9 µM and 241%.
As for `C1CCN(CC2CON=C([C@]34CCC[C@H]3NCC4)O2)CC1` (relative stereo) [compound 469, rac-3-rel-trans-((3aS,6aR)-hexahydrocyclopenta[b]pyrrol-3a(1H)-yl)-5-(piperidin-1-ylmethyl)-5,6-dihydro-1,4,2-dioxazine], the “GBA EC1.5” value is 5 µM and the “GBA Emax” value worked out at 204%.
As to `C[C@@]12CNC[C@]1(C1=NOCC(CN3CCCCC3)O1)C2` (relative stereo) [compound 481, rac-rel-trans-3-((1R,5R)-5-methyl-3-azabicyclo[3.1.0]hexan-1-yl)-5-(piperidin-1-ylmethyl)-5,6-dihydro-1,4,2-dioxazine], the “GBA EC1.5” value was found to be 22 µM and the Emax came out at 174%.
The like results for `C1CCN(CC2CON=C([C@@]34CNC[C@@H]3C4)O2)CC1` (relative stereo) [compound 482, rac-rel-trans-3-((1R,5R)-3-azabicyclo[3.1.0]hexan-1-yl)-5-(piperidin-1-ylmethyl)-5,6-dihydro-1,4,2-dioxazine] were, in that order, 14 µM and 268%.
On to `C1CCN(CC2CON=C([C@]34CC[C@H]3CNC4)O2)CC1` (relative stereo) [compound 485, rac-rel-trans-3-((1R,5R)-3-azabicyclo[3.2.0]heptan-1-yl)-5-(piperidin-1-ylmethyl)-5,6-dihydro-1,4,2-dioxazine di-2,2,2-trifluoroacetate], for which the “GBA EC1.5” value was 25 µM and the Emax is 174%.
As for `C[C@@H]1CNC[C@@]1(C)C1=NOCC(CN2CCCCC2)O1` (relative stereo) [compound 489, rac-rel-cis-3-((3R,4R)-3,4-dimethylpyrrolidin-3-yl)-5-(piperidin-1-ylmethyl)-5,6-dihydro-1,4,2-dioxazine], the “GBA EC1.5” value is 29 µM and the maximum response (Emax) came out at 242%.
Taken in the same sequence, the figures for `C1CCN(CC2CON=C([C@]34CNC[C@H]3COC4)O2)CC1` (relative stereo) [compound 494, rac-rel-trans-(3aR,6aR)-3a-(5-(piperidin-1-ylmethyl)-5,6-dihydro-1,4,2-dioxazin-3-yl)hexahydro-1H-furo[3,4-c]pyrrole] were 18 µM and 307%.
Taken in the same sequence, the figures for `C[C@@H]1CNC[C@H]1C1=NOCC(CN2CCCCC2)O1` (relative stereo) [compound 551, rac-rel-trans-3-((3R,4R)-4-methylpyrrolidin-3-yl)-5-(piperidin-1-ylmethyl)-5,6-dihydro-1,4,2-dioxazine] were 14 µM and 185%.
Taken in the same sequence, the figures for `CN(C)[C@H]1CC[C@@H](C2=NOCC(CN3CCCCC3)O2)CC1` (relative stereo) [compound 569, rac-rel-cis-(1S,4S)—N,N-dimethyl-4-(5-(piperidin-1-ylmethyl)-5,6-dihydro-1,4,2-dioxazin-3-yl)cyclohexan-1-amine] were 7 µM and 187%.
Turning to `C1CCN(CC2CON=C([C@]34CCC[C@H]3NCC4)O2)CC1` (relative stereo) [compound 584, rac-rel-trans-3-((3aS,6aR)-hexahydrocyclopenta[b]pyrrol-3a(1H)-yl)-5-(piperidin-1-ylmethyl)-5,6-dihydro-1,4,2-dioxazine], the “GBA EC1.5” value is 10 µM and 5 µM; the “GBA Emax” value was 253% and 204%.
As to `C1CCN(C[C@@H]2CON=C([C@]34CCC[C@H]3NCC4)O2)CC1` (relative stereo) [compound 589, (rel-R)-3-((rel-trans-3aS,6aR)-hexahydrocyclopenta[b]pyrrol-3a(1H)-yl)-5-(piperidin-1-ylmethyl)-5,6-dihydro-1,4,2-dioxazine], the “GBA EC1.5” value is 4 µM and 5 µM; the “GBA Emax” value is 216% and 272%.
`CN1C[C@@H](O)C[C@H](C2=NOCC(CN3CCCCC3)O2)C1` (relative stereo) [compound 724, rac-rel-(3R,5R)-1-methyl-5-(5-(piperidin-1-ylmethyl)-5,6-dihydro-1,4,2-dioxazin-3-yl)piperidin-3-ol]: the “GBA EC1.5” value was found to be 16 µM and the Emax amounted to 274%.
The like results for `CN(C)C(=O)[C@@]12CC[C@]1(C1=NOCC(CN3CCCCC3)O1)CNC2` (relative stereo) [compound 765, rac-rel-(1R,5S)—N,N-dimethyl-5-(5-(piperidin-1-ylmethyl)-5,6-dihydro-1,4,2-dioxazin-3-yl)-3-azabicyclo[3.2.0]heptane-1-carboxamide] were, in that order, 29 µM and 151%.
With `CC1(C2=NOCC(CN3CCCCC3)O2)CCNCC1` (single isomer, unassigned) [compound 567], the “GBA EC1.5” value turned out to be 7 µM and the Emax was 296%.
As for `C1CCN(C[C@@H]2CON=C([C@]34CCC[C@H]3NCC4)O2)CC1` (single isomer, unassigned) [compound 590], the “GBA EC1.5” value was 4 µM and 3 µM; the “GBA Emax” value is 211% and 273%.

As usually defined, the Emax is the size of the effect at its maximum, as opposed to the concentration needed.

For the origin of these results see US20240390383A1, “DIOXAZINES AND THEIR USE IN TREATMENT OF GBA-RELATED DISEASES” (ZEVRA DENMARK A/S, priority 2021, published 2024).
